Drawing on patent US10086085B2, “Bifunctional cytotoxic agents” (priority 2014, dated 2018), this text covers IC50 for nine molecules.

The subject of assay [1] is HL60 (leukemia). The assay can be described thus: Cytotoxicity assay for payloads (MTS), HL-60 cells. To be noted: Homo sapiens, 96 h, incubated with compounds for four days, MTS absorbance 490 nm. Format: cell-based. The essentials: (§1)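 Cells in RPMI 1640 with 10% FBS exposed to compounds for four days at 10 concentrations in duplicate. Viability read by MTS absorbance at 490 nm after 1.5 h, as % of untreated controls; IC50 from four-parameter logistic fit.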

Assay [2] deals with N87 (human gastric carcinoma derived from metastatic liver site). The assay can be described thus: Cytotoxicity assay for payloads (MTS), N87 cells. Format: cell-based. To be noted: Homo sapiens, 96 h; N87 cells, incubated with compounds for four days, MTS absorbance 490 nm; read-out: N87 IC50. The procedure, abridged: as §1

Consider `O=C(N1C[C@@H](CCl)c2c1cc(O)c1ccccc21)C12CC(C(=O)N3C[C@@H](CCl)c4c3cc(OP(=O)(O)O)c3ccccc43)(C1)C2` [Compound 163, (1S)-1-(chloromethyl)-3-[(3-{[(1S)-1-(chloromethyl)-5-hydroxy-1,2-dihydro-3H-benzo[e]indol-3-yl]carbonyl}bicyclo[1.1.1]pent-1-yl)carbonyl]-2,3-dihydro-1H-benzo[e]indol-5-yl dihydrogen phosphate], for which the IC50 (as a rule, the point on the concentration scale where inhibition reaches its midpoint) in assay [1] was determined as 0.179 nM; in assay [2] it was 6.89 nM.
For `Cc1c[nH]c2c(O)cc3c(c12)[C@H](CCl)CN3C(=O)CNCC(=O)N1C[C@@H](CCl)c2c1cc(O)c1[nH]cc(C)c21` [Compound 165, 2,2′-iminobis{1-[(1S)-1-(chloromethyl)-5-hydroxy-8-methyl-1,6-dihydropyrrolo[3,2-e]indol-3(2H)-yl]ethanone}], in that order: 0.107 nM and 8.26 nM.
For `NC(CC(=O)N1C[C@H]2C[C@@]23C1=CC(=O)c1ccccc13)CC(=O)N1C[C@H]2C[C@@]23C1=CC(=O)c1ccccc13` [Compound 166, 3-amino-1,5-bis[(1aS,9bR)-5-oxo-1a,2-dihydro-1H-benzo[e]cyclopropa[c]indol-3(5H)-yl]pentane-1,5-dione], the IC50 in assay [1] came out at 0.659 nM; in assay [2], 5.69 nM.
Taken in the same sequence, the figures for `N[C@@H](CCC(=O)N1C[C@H]2C[C@@]23C1=CC(=O)c1ccccc13)C(=O)N1C[C@H]2C[C@@]23C1=CC(=O)c1ccccc13` [Compound 167, (2S)-2-amino-1,5-bis[(1aS,9bR)-5-oxo-1a,2-dihydro-1H-benzo[e]cyclopropa[c]indol-3(5H)-yl]pentane-1,5-dione] were 1.45 nM and at least 10 nM.
For `Cc1c[nH]c2c(O)cc3c(c12)[C@H](CCl)CN3C(=O)CN(CC(=O)N1C[C@@H](CCl)c2c1cc(O)c1[nH]cc(C)c21)C(=O)OCC1c2ccccc2-c2ccccc21` [Compound 169, 9H-fluoren-9-ylmethyl bis{2-[(1S)-1-(chloromethyl)-5-hydroxy-8-methyl-1,6-dihydropyrrolo[3,2-e]indol-3(2H)-yl]-2-oxoethyl}carbamate], in that order: 0.388 nM and 9.82 nM.
For `O=C(c1ccc(C(=O)N2C[C@@H](CCl)c3c2cc(OP(=O)(O)O)c2ccccc32)s1)N1C[C@@H](CCl)c2c1cc(O)c1ccccc21` [Compound 171, (1S)-1-(chloromethyl)-3-[(5-{[(1S)-1-(chloromethyl)-5-hydroxy-1,2-dihydro-3H-benzo[e]indol-3-yl]carbonyl}thiophen-2-yl)carbonyl]-2,3-dihydro-1H-benzo[e]indol-5-yl dihydrogen phosphate], in that order: 0.131 nM and 1.55 nM.
As to `O=C(OCC1c2ccccc2-c2ccccc21)N(CC(=O)N1C[C@@H](CCl)c2c1cc(O)c1ccccc21)CC(=O)N1C[C@@H](CCl)c2c1cc(O)c1ccccc21` [Compound 172, 9H-fluoren-9-ylmethyl bis{2-[(1S)-1-(chloromethyl)-5-hydroxy-1,2-dihydro-3H-benzo[e]indol-3-yl]-2-oxoethyl}carbamate], the IC50 stood at 0.474 nM in assay [1] and 13.8 nM in assay [2].
For `O=C(CNCC(=O)N1C[C@@H](CCl)c2c1cc(OP(=O)(O)O)c1ccccc21)N1C[C@@H](CCl)c2c1cc(OP(=O)(O)O)c1ccccc21` [Compound 173, iminobis[(1-oxoethane-2,1-diyl)(1S)-1-(chloromethyl)-1,2-dihydro-3H-benzo[e]indole-3,5-diyl] bis[dihydrogen (phosphate)]], in that order: 0.169 nM and 13.1 nM.
As for `O=C([C@@H]1CNC[C@H](C(=O)N2C[C@@H](CCl)c3c2cc(O)c2ccccc32)C1)N1C[C@@H](CCl)c2c1cc(O)c1ccccc21` [Compound 174, (3R,5S)-piperidine-3,5-diylbis{[(1S)-1-(chloromethyl)-5-hydroxy-1,2-dihydro-3H-benzo[e]indol-3-yl]methanone}], the IC50 came to 1.97 nM in assay [1] and 87.9 nM in assay [2].
